Reference: a melting point compilation (Tetko et al.; mined from patent text by program, amines drawn as free bases though some values may be those of a salt)

SMILES | melting point [°C]
COC(=O)C(=COCF)c1ccccc1CBr | 73 to 76
CSC(C)(C(=O)O)c1ccc2oc(Cc3nc(-c4ccccc4)oc3C)cc2c1 (stereo unspecified) | 178 to 179
CN(Cc1cc(C(F)(F)F)cc(C(F)(F)F)c1)C(=O)c1c(Cl)nc2ccccc2c1-c1ccccc1 | 147 to 148
Cn1cc(C#N)c(=O)c(-c2cccc(C(F)(F)F)c2)c1 | 228 to 229
C(=Cc1ccc(-c2nc(-c3ccccc3)no2)cc1)c1ccc(-c2nc3ccccn3n2)cc1 | 287
COC(=O)C(Cc1ccc(OCc2ccccc2)cc1)N1CC(N2C(=O)c3ccccc3C2=O)C1=O (stereo unspecified) | 147 to 148
CNc1cc(OC)c(-c2nc(C)c(-c3cccnc3)[nH]2)cc1Cl | 205 to 206
Cc1c(N2CCC(N)C2)c(F)cc2c(=O)c(C(=O)O)cn(C3COC3)c12 (stereo unspecified) | > 230
O=c1cccccc1N1CCN(CCO)CC1 | 85 to 86
CCCCC(=O)c1c(C(C)(C)C)cc(C=[N+]([O-])C(C)(C)C)cc1C(C)(C)C | 196 to 205
O=C1c2cc(Br)ccc2CCc2ccc(S(=O)(=O)F)cc21 | 148 to 151
O=C1NC(c2ccccc2)=C2C(=O)OC(c3ccc(Br)cc3)=C12 | 295
CC(Oc1ccc(F)cc1)C1CN(c2ccccc2)CCN1 (stereo unspecified) | 80 to 82
BrCc1ncc(Br)cn1 | 55 to 57
CC(=O)NC1CCN(c2cccc(Br)n2)CC1 | 158 to 160
Cc1ccc(N2CCN(Cc3ccc4c(c3)NC(=O)CO4)CC2)cc1 | 209 to 212
O=[N+]([O-])C=Cc1ccc(O)c(Cl)c1 | 127 to 129
CC(=O)NC[C@H]1CN(c2ccc(-c3nc(Cn4ccnc4)co3)c(F)c2)C(=O)O1 | 198 to 200

The next lines start with the values.

melting point [°C] | SMILES
59 to 61 | COc1ccc(C(=O)Nc2cccc(C3(C#N)CCCC3)c2)cc1OC
84 to 86 | CC(C)Cn1nc(O)nc1Cl
71 to 73 | CC(C)(C)c1ccc(OCCCCCN2CCN(c3nccs3)CC2)cc1
132 | COc1cc(-c2ccnc(Nc3cccc(OC(F)(F)C(F)F)c3)n2)cc(OC)c1OC
250 to 252 | O=C(O)c1cnc(N2CCN(CC3CC3)C2=O)s1
82 to 84 | COC(=O)c1ccc(C(=O)N2CCN(c3ncccc3NCC(C)C)CC2)nc1
136 to 138 | CS(=O)(=O)c1ccc(-c2c(-c3ccc(F)cc3)c(OCC(=O)c3cccs3)nn2CC(=O)c2cccs2)cc1
70 to 77 | CCCn1nc(C2CC2)c(C(=O)OCC)c1Cc1ccc(-c2ccccc2S(N)(=O)=O)cc1
168 to 169 | CCCCC1N=c2ccc(OCC)c(C(=O)OCC)c2=NC1=O (stereo unspecified)
98 to 100 | COc1nn(CC(=O)C2CC2)c(=O)s1
120 to 122 | O=C(NCCCn1cnc(-c2ccccc2)c1)c1ccco1
65 to 68 | COC(=O)c1ccc(NC(=O)C(CC2CCCC2)c2ccc(N)cc2)nc1 (stereo unspecified)
123 to 125 | CN1CCN(c2cccc3c2C[C@H](N(C)C(=O)c2ccc(C(F)(F)F)cc2)CC3)CC1
187 | Cn1c([N+](=O)[O-])cnc1CS(=O)(=O)c1ccccn1
217 to 219 | COc1ccc(C2=NN(c3cc(C)c4c(C)nn(C)c4n3)C(=O)[C@H]3CC=CC[C@@H]23)cc1Cl (relative stereo)
> 246 | Fc1ccc2[nH]c3c4ccccc4nc-3cc2c1
247 to 249 | Cc1nsnc1-n1cc(C(=O)O)c(=O)c2cc(F)c(Cl)nc21
72 to 73 | O=Cc1ccc(OCc2ccccc2)c(CCl)n1
62 to 63 | CC(C)CCc1ccc(C(=S)CC#N)cc1
222 to 225 | O=c1[nH]c(CCCN2CCCC2)cc2c(O)cccc12
173 to 175 | Nc1ccc(C2Oc3cc4c(cc3O2)CC2COC(=O)N2N=C4)cc1 (stereo unspecified)
98 | COc1cc(CBr)ccc1[N+](=O)[O-]
160 | CC(CNc1nc(Cl)ncc1Cl)NS(C)(=O)=O (stereo unspecified)
